# From patent publication US11458189B2, “Cytoprotective drugs” (BALMES TRANSPLANTATION, priority 2017, dated 2022)
# Starred links: 1 amine or outer side, 2 acyl side, 3 side chain; linkers in the order of their positions; H or OH if unused. Positions of bridges follow the written chain, without caps; N, C: chain ends. Non-standard residues stand in square brackets, D forms with d. Residues, ends and D or L forms follow the SMILES beside them. ξ: configuration not given here. *: point of attachment. hTyr(3S-OH,4S-OH,3'-OSO3H) = N[C@H](C(=O)O)[C@H](O)[C@@H](O)c1ccc(O)c(OS(=O)(=O)O)c1; pTerphenylCO(4''-OnC5H11) = CCCCCOc1ccc(-c2ccc(-c3ccc(C(=O)*)cc3)cc2)cc1; Orn(4R-OH,5R-OH) = O=C([C@H](C[C@@H](O)[C@@H](O)N[*:3])N[*:1])[*:2]; hTyr(3S-OH,4S-OH) = N[C@H](C(=O)O)[C@H](O)[C@@H](O)c1ccc(O)cc1; Pro(3S-OH,4S-Me) = C[C@H]1CN[C@H](C(=O)O)[C@H]1O; X1 = CCCCCOc1ccc(-c2cc(-c3ccc(C(=O)*)cc3)no2)cc1; Gln(3R-OH) = NC(=O)C[C@@H](O)[C@H](N)C(=O)O; ξPro(4R-OH) = O=C(O)C1C[C@@H](O)CN1; Hyp = O=C(O)[C@@H]1C[C@@H](O)CN1
# System: Bovine Brain Microvascular Endothelial Cells (BBMEC)
# Assay: Oxygen and glucose deprivation followed by replenishment, cell survival (calcein AM), BBMEC
# Assay type: cell-based
# Description: Anidulafungin and micafungin were tested on Human Renal Glomerular Endothelial Cells (HRGEC, Innoprot P10665), on Human Renal Proximal Tubular Epithelial Cells (HRPTEpiC, Innoprot P10662), on Human Astrocytes (HA, caltag SC-1800), on Human Cardiac Microvascular Endothelial Cells (HCMEC, Caltag SC-6000), on Human Hepatic Sinusoidal Endothelial Cells (HHSEC, Caltag SC-5000), on Rat Primary Kidney Glomerular Endothelial cells (Cellbiologics, RN-6014G) and on Bovine Brain Microvascular Endothelial Cells (BBMEC, Caltag SC-B100).
# In a first phase, these isolated, purified and cryopreserved cells are thawed and multiplied according to the supplier's recommendations in T75 or T175 flasks pre-coated with 2 μg of fibronectin/[…] (CORNING) for HRGEC, HCMEC, HHSEC and BBMEC, or 2 μg poly-L-lysin/cm^2 (Caltag SC-0403) for HRPTEpiC and HA, or 15 mL/flask 175 cm^2 gelatin-based solution (Cellbiologics) in the presence of endothelial cell supplemented growth medium ECM (P60104, INNOPROT, Caltag, SC-1001) for HRGEC, HCMEC, HHSEC, RPKGEC or BBMEC, or astrocyte cell supplemented growth medium AM (Caltag SC-1801) for HA or epithelial cell supplemented growth medium EpiCM (P60106, INNOPROT) for HRPTEpiC, at 37° C. under 5% CO2 and saturated humidity until their confluency. They are then harvested by trypsinization according to the method described by the supplier for exactly 5 minutes and then reseeded in new flasks a maximum of three times.
# To carry out the oxygen and glucose deprivation test followed by their replenishment, the cells will be seeded in 96-well black plates with transparent flat bottom (GREINER). Once a sufficient number of cells has been obtained to allow seeding of 2000 to 15000 cells per well of 96-well plates depending on the cell type, the cells are seeded in these 96-well plates previously coated with an extracellular matrix as listed above for the flasks. The cells are cultured for 5 to 8 days according to the cell type, in the presence of the same growth medium as in the flask as described above except for HRGEC and HRPTEpiC for which DMEM (DUTSCHER) with 1 g/L of supplemented glucose is used, at 37° C. under 5% CO2 and saturated humidity to obtain confluency.
# On the first day of oxygen and glucose deprivation, (5th, 6th, 7th or 8th day of culture), the culture conditions are drastically changed. The medium of all plates is removed and replaced by DMEM (DUTSCHER) medium without glucose and supplemented only with 1% penicillin-streptomycin (DUTSCHER). Anidulafungin or micafungin dissolved in dimethyl sulfoxide (DMSO) is then added to each well at the desired concentration, resulting in a maximum of 1% DMSO, and the plates are placed under hypoxia at <1% 02 and 5% CO2 at 37° C. for 24 hours of culture. Each compound was tested in a concentration range.
# After 24 hours, the growth medium is changed and replaced by a richer medium, DMEM (DUTSCHER) at 1 g/L glucose and 2% FBS (INNOPROT) and 1% penicillin-streptomycin (DUTSCHER). These media will have been pre-equilibrated at 37° C. in advance. The cells are then returned to culture at 37° C. under 20% 02 and 5% CO2 for 22h.
# After 22 hours of reoxygenation, the potential protective effect of anidulafungin or micafungin is measured by a cell viability test using calcein AM (CORNING), which is a dye substrate. The calcein AM can easily cross the cell membrane of the viable cells. The AM ester groups mask the part of the molecule that chelates calcium. Once inside the cells, the (non-fluorescent) calcein AM is hydrolyzed to (fluorescent) calcein by endogenous esterases. The resulting calcein molecule binds to calcium inside the cell and remains trapped inside the cell. These molecules emit strong green fluorescence when subjected to […] of a particular wavelength (495 nm). Since dead cells lack esterase activity, only living cells are labelled.
# This cell viability test is performed in two steps. […]
# [1] = [Anidulafungin] log μM 0.1760913
# [2] = [Anidulafungin] log μM −0.1249387
# [3] = [Anidulafungin] log μM −0.30103
# [4] = [Anidulafungin] log μM −0.5228788
smiles,measurement,setting,value
"CCCCCOc1ccc(-c2ccc(-c3ccc(C(=O)N[C@H]4C[C@@H](O)[C@@H](O)NC(=O)[C@@H]5[C@@H](O)[C@@H](C)CN5C(=O)[C@H]([C@@H](C)O)NC(=O)[C@H]([C@H](O)[C@@H](O)c5ccc(O)cc5)NC(=O)C5C[C@@H](O)CN5C(=O)[C@H]([C@@H](C)O)NC4=O)cc3)cc2)cc1 (stereo partly drawn) [Anidulafungin] ({pTerphenylCO(4''-OnC5H11)}-[Orn(4R-OH,5R-OH)]T[ξPro(4R-OH)][hTyr(3S-OH,4S-OH)]T[Pro(3S-OH,4S-Me)]; lactam 1-C)",Globalfluo assay 1,[Anidulafungin] log μM 0,941644 arbitrary units
same,Globalfluo assay 2,[Anidulafungin] log μM 0,1153883 arbitrary units
same,Globalfluo assay 3,[Anidulafungin] log μM 0,1374585 arbitrary units
same,Mean globalfluo,[Anidulafungin] log μM 0,1156704 arbitrary units
same,Survival rate (%),[Anidulafungin] log μM 0,30%
same,Globalfluo assay 1,[1],2348228 arbitrary units
same,Globalfluo assay 2,[1],1617378 arbitrary units
same,Globalfluo assay 3,[1],1887981 arbitrary units
same,Mean globalfluo,[1],1951196 arbitrary units
same,Survival rate (%),[1],77%
same,Globalfluo assay 1,[Anidulafungin] log μM 0.30103,2455048 arbitrary units
same,Globalfluo assay 2,[Anidulafungin] log μM 0.30103,2409886 arbitrary units
same,Globalfluo assay 3,[Anidulafungin] log μM 0.30103,4507112 arbitrary units
same,Mean globalfluo,[Anidulafungin] log μM 0.30103,3124015 arbitrary units
same,Survival rate (%),[Anidulafungin] log μM 0.30103,145%
same,Globalfluo assay 1,[Anidulafungin] log μM 0.60206,4710709 arbitrary units
same,Globalfluo assay 2,[Anidulafungin] log μM 0.60206,5014887 arbitrary units
same,Globalfluo assay 3,[Anidulafungin] log μM 0.60206,4901610 arbitrary units
same,Mean globalfluo,[Anidulafungin] log μM 0.60206,4875735 arbitrary units
same,Survival rate (%),[Anidulafungin] log μM 0.60206,248%
same,Globalfluo assay 1,[2],1165160 arbitrary units
same,Globalfluo assay 2,[2],919370 arbitrary units
same,Globalfluo assay 3,[2],944308 arbitrary units
same,Mean globalfluo,[2],1009613 arbitrary units
same,Survival rate (%),[2],22%
same,Globalfluo assay 1,[3],744687 arbitrary units
same,Globalfluo assay 2,[3],1045135 arbitrary units
same,Globalfluo assay 3,[3],678965 arbitrary units
same,Mean globalfluo,[3],822929 arbitrary units
same,Survival rate (%),[3],11%
same,Globalfluo assay 1,[4],800327 arbitrary units
same,Globalfluo assay 2,[4],708910 arbitrary units
same,Globalfluo assay 3,[4],845212 arbitrary units
same,Mean globalfluo,[4],784816 arbitrary units
same,Survival rate (%),[4],8%
same,Globalfluo assay 1,[Anidulafungin] log μM −1,649447 arbitrary units
same,Globalfluo assay 2,[Anidulafungin] log μM −1,1235676 arbitrary units
same,Globalfluo assay 3,[Anidulafungin] log μM −1,807779 arbitrary units
same,Mean globalfluo,[Anidulafungin] log μM −1,897634 arbitrary units
same,Survival rate (%),[Anidulafungin] log μM −1,15%
same,Globalfluo assay 1,[Anidulafungin] log μM −2,664396 arbitrary units
same,Globalfluo assay 2,[Anidulafungin] log μM −2,532817 arbitrary units
same,Globalfluo assay 3,[Anidulafungin] log μM −2,541230 arbitrary units
same,Mean globalfluo,[Anidulafungin] log μM −2,579481 arbitrary units
same,Survival rate (%),[Anidulafungin] log μM −2,−4%
"CCCCCOc1ccc(-c2cc(-c3ccc(C(=O)N[C@H]4C[C@@H](O)[C@@H](O)NC(=O)[C@@H]5[C@@H](O)[C@@H](C)CN5C(=O)[C@H]([C@H](O)CC(N)=O)NC(=O)[C@H]([C@H](O)[C@@H](O)c5ccc(O)c(OS(=O)(=O)O)c5)NC(=O)[C@@H]5C[C@@H](O)CN5C(=O)[C@H]([C@@H](C)O)NC4=O)cc3)no2)cc1 [Micafungin, {5-[(1S,2S)-2-[(3S,6S,9S,11R,15S,18S,20R,21R,24S,25S,26S)-3-[(1R)-2-carbamoyl-1-hydroxyethyl]-11,20,21,25-tetrahydroxy-15-[(1R)-1-hydroxyethyl]-26-methyl-2,5,8,14,17,23-hexaoxo-18-[(4-{5-[4-(pentyloxy)phenyl]-1,2-oxazol-3-yl}benzene)amido]-1,4,7,13,16,22-hexaazatricyclo[22.3.0.0]heptacosan-6-yl]-1,2-dihydroxyethyl]-2-hydroxyphenyl}oxidanesulfonic acid] (X1-[Orn(4R-OH,5R-OH)]T[Hyp][hTyr(3S-OH,4S-OH,3'-OSO3H)][Gln(3R-OH)][Pro(3S-OH,4S-Me)]; lactam 1-C)",Globalfluo assay 1,[Micafungin] log μM 0,1369504 arbitrary units
same,Globalfluo assay 2,[Micafungin] log μM 0,1354112 arbitrary units
same,Globalfluo assay 3,[Micafungin] log μM 0,1230715 arbitrary units
same,Mean globalfluo,[Micafungin] log μM 0,1318110 arbitrary units
same,Survival rate (%),[Micafungin] log μM 0,23%
same,Globalfluo assay 1,[Micafungin] log μM 0.4771213,2106751 arbitrary units
same,Globalfluo assay 2,[Micafungin] log μM 0.4771213,1655153 arbitrary units
same,Globalfluo assay 3,[Micafungin] log μM 0.4771213,1618365 arbitrary units
same,Mean globalfluo,[Micafungin] log μM 0.4771213,1793423 arbitrary units
same,Survival rate (%),[Micafungin] log μM 0.4771213,46%
same,Globalfluo assay 1,[Micafungin] log μM 0.7781513,1732851 arbitrary units
same,Globalfluo assay 2,[Micafungin] log μM 0.7781513,1742799 arbitrary units
same,Globalfluo assay 3,[Micafungin] log μM 0.7781513,1796080 arbitrary units
same,Mean globalfluo,[Micafungin] log μM 0.7781513,1757243 arbitrary units
same,Survival rate (%),[Micafungin] log μM 0.7781513,44%
same,Globalfluo assay 1,[Micafungin] log μM 0.90309,3787727 arbitrary units
same,Globalfluo assay 2,[Micafungin] log μM 0.90309,1942995 arbitrary units
same,Globalfluo assay 3,[Micafungin] log μM 0.90309,2729816 arbitrary units
same,Mean globalfluo,[Micafungin] log μM 0.90309,2820179 arbitrary units
same,Survival rate (%),[Micafungin] log μM 0.90309,96%
same,Globalfluo assay 1,[Micafungin] log μM 1,3519337 arbitrary units
same,Globalfluo assay 2,[Micafungin] log μM 1,3058877 arbitrary units
same,Globalfluo assay 3,[Micafungin] log μM 1,3179364 arbitrary units
same,Mean globalfluo,[Micafungin] log μM 1,3252526 arbitrary units
same,Survival rate (%),[Micafungin] log μM 1,117%
same,Globalfluo assay 1,[Micafungin] log μM 1.079181,2865371 arbitrary units
same,Globalfluo assay 2,[Micafungin] log μM 1.079181,2913567 arbitrary units
same,Globalfluo assay 3,[Micafungin] log μM 1.079181,3561196 arbitrary units
same,Mean globalfluo,[Micafungin] log μM 1.079181,3113378 arbitrary units
same,Survival rate (%),[Micafungin] log μM 1.079181,110%
same,Globalfluo assay 1,[Micafungin] log μM 1.176091,2994828 arbitrary units
same,Globalfluo assay 2,[Micafungin] log μM 1.176091,3496204 arbitrary units
same,Globalfluo assay 3,[Micafungin] log μM 1.176091,3106542 arbitrary units
same,Mean globalfluo,[Micafungin] log μM 1.176091,3199191 arbitrary units
same,Survival rate (%),[Micafungin] log μM 1.176091,114%
same,Globalfluo assay 1,[Micafungin] log μM 1.30103,3526958 arbitrary units
same,Globalfluo assay 2,[Micafungin] log μM 1.30103,3025877 arbitrary units
same,Globalfluo assay 3,[Micafungin] log μM 1.30103,3586726 arbitrary units
same,Mean globalfluo,[Micafungin] log μM 1.30103,3379854 arbitrary units
same,Survival rate (%),[Micafungin] log μM 1.30103,123%
same,Globalfluo assay 1,[Micafungin] log μM 1.477121,2506989 arbitrary units
same,Globalfluo assay 2,[Micafungin] log μM 1.477121,2361926 arbitrary units
same,Globalfluo assay 3,[Micafungin] log μM 1.477121,2557219 arbitrary units
same,Mean globalfluo,[Micafungin] log μM 1.477121,2475378 arbitrary units
same,Survival rate (%),[Micafungin] log μM 1.477121,79%
same,Globalfluo assay 1,[Micafungin] log μM −0.5228788,1907644 arbitrary units
same,Globalfluo assay 2,[Micafungin] log μM −0.5228788,993296 arbitrary units
same,Globalfluo assay 3,[Micafungin] log μM −0.5228788,1867099 arbitrary units
same,Mean globalfluo,[Micafungin] log μM −0.5228788,1589346 arbitrary units
same,Survival rate (%),[Micafungin] log μM −0.5228788,36%
same,Globalfluo assay 1,[Micafungin] log μM −1,1108584 arbitrary units
same,Globalfluo assay 2,[Micafungin] log μM −1,1249769 arbitrary units
same,Globalfluo assay 3,[Micafungin] log μM −1,1224251 arbitrary units
same,Mean globalfluo,[Micafungin] log μM −1,1194201 arbitrary units
same,Survival rate (%),[Micafungin] log μM −1,17%
same,Globalfluo assay 1,[Micafungin] log μM −2,1778372 arbitrary units
same,Globalfluo assay 2,[Micafungin] log μM −2,817005 arbitrary units
same,Globalfluo assay 3,[Micafungin] log μM −2,1173090 arbitrary units
same,Mean globalfluo,[Micafungin] log μM −2,1256156 arbitrary units
same,Survival rate (%),[Micafungin] log μM −2,20%
